Measurements: ChEMBL document CHEMBL3832761, “MMV Pathogen Box Bioactivity Data” (2017)
≈ marks a conversion by molar mass, not a printed value.

Key:
Assay type in all cases: functional
[1] = system: HepG2; assay: HepG2 glucose CC50 (uM) Cytotoxicity
[2] = system: Mycobacterium tuberculosis; assay: AntiMycobacterium tuberculosis activity 2-week Alamar Blue 7H9/ADC/Tw MIC (uM); details: 336 h
[3] = system: Mycobacterium tuberculosis; assay: AntiMycobacterium tuberculosis activity 1-week 7H9/ADC/Tw MIC (uM); details: 168 h
[4] = system: Mycobacterium tuberculosis; assay: AntiMycobacterium tuberculosis activity day 21 in 7H9/2.5mM butyrate/pH6/0.1mM nitrite MIC90 (uM); details: 504 h
[5] = system: Mycobacterium tuberculosis; assay: (§1) AntiMycobacterium tuberculosis activity day 10 in 7H9/2.5mM butyrate/pH6/0.1mM nitrite MIC90 (uM); details: 240 h
[6] = system: Mycobacterium tuberculosis; assay: AntiMycobacterium tuberculosis activity 2-week 7H9/DPPC/cholesterol/BSA/Tx MIC (uM); details: 336 h
[7] = system: Mycobacterium tuberculosis; assay: as §1; details: 240 h; remark: listed apart in the source
[8] = system: Mycobacterium tuberculosis; assay: AntiMycobacterium tuberculosis activity 1-week 7H9/DPPC/cholesterol/BSA/Tx MIC (uM); details: 168 h
[9] = system: HepG2; assay: HepG2 galactose CC50 (uM) Cytotoxicity
[10] = system: Mycobacterium tuberculosis; assay: AntiMycobacterium tuberculosis activity 2-week Alamar Blue 7H9/cholesterol/BSA/Tx MIC (uM); details: 336 h
[11] = system: Mycobacterium tuberculosis; assay: AntiMycobacterium tuberculosis activity 1-week 7H9/cholesterol/BSA/Tx MIC (uM); details: 168 h
[12] = system: Mycobacterium tuberculosis; assay: AntiMycobacterium tuberculosis activity 2-week 7H9/ADC/Tw MIC (uM); details: 336 h
[13] = system: Mycobacterium tuberculosis; assay: AntiMycobacterium tuberculosis activity 1-week GAST/Fe MIC (uM); details: 168 h
[14] = system: Mycobacterium tuberculosis; assay: AntiMycobacterium tuberculosis activity 2-week 7H9/glucose/BSA/Tx MIC (uM); details: 336 h
[15] = system: Mycobacterium tuberculosis; assay: AntiMycobacterium tuberculosis activity 2-week GAST/Fe MIC (uM); details: 336 h
[16] = system: Mycobacterium tuberculosis; assay: AntiMycobacterium tuberculosis activity 1-week 7H9/glucose/BSA/Tx MIC (uM); details: 168 h
[17] = system: Mycobacterium tuberculosis; assay: AntiMycobacterium tuberculosis activity day 21 MIC99 in 7H9/2.5mM butyrate/pH6/0.1mM nitrite MIC99 (uM); details: 504 h

| Compound | CC50 ([1]; Homo sapiens, HepG2) [µM] | MIC [2] [µM] | MIC [3] [µM] | MIC90 [4] [µM] | MIC90 [5] [µM] | MIC [6] [µM] | MIC90 [7] [µM] | MIC [8] [µM] | CC50 ([9]; Homo sapiens, HepG2) [µM] | MIC [10] [µM] | MIC [11] [µM] | MIC [12] [µM] | MIC [13] [µM] | MIC [14] [µM] | MIC [15] [µM] | MIC [16] [µM] | MIC [17] [µM] | CC50 [1] [µM] | CC50 [9] [µM] |
| --- | --- | --- | --- | --- | --- | --- | --- | --- | --- | --- | --- | --- | --- | --- | --- | --- | --- | --- | --- |
| O=[N+]([O-])c1cn2c(n1)OC[C@@H](OCc1ccc(OC(F)(F)F)cc1)C2 [PRETOMANID] | > 50 | 0.39 (≈ 0.14 µg/mL) | 0.39 (≈ 0.14 µg/mL) | 0.78 (≈ 0.28 µg/mL) | 0.78 (≈ 0.28 µg/mL) | 0.2 (≈ 0.0719 µg/mL) | 0.39 (≈ 0.14 µg/mL) | 0.2 (≈ 0.0719 µg/mL) | > 50 | 0.3 (≈ 0.108 µg/mL) | 0.1 (≈ 0.0359 µg/mL) | 0.39 (≈ 0.14 µg/mL) | 0.2 (≈ 0.0719 µg/mL) | 0.6 (≈ 0.216 µg/mL) | 0.15 (≈ 0.0539 µg/mL) | 0.39 (≈ 0.14 µg/mL) | 3.1 (≈ 1.11 µg/mL) | – | – |
| c1ccc(-c2nc(NC3CCCCC3)cc(C3CC3)n2)nc1 | > 50 | 37 (≈ 10.9 µg/mL) | 37 (≈ 10.9 µg/mL) | 50 (≈ 14.7 µg/mL) | 50 (≈ 14.7 µg/mL) | 50 (≈ 14.7 µg/mL) | 25 (≈ 7.36 µg/mL) | 25 (≈ 7.36 µg/mL) | > 50 | 9.4 (≈ 2.77 µg/mL) | 19 (≈ 5.59 µg/mL) | 50 (≈ 14.7 µg/mL) | 25 (≈ 7.36 µg/mL) | 50 (≈ 14.7 µg/mL) | 25 (≈ 7.36 µg/mL) | 37 (≈ 10.9 µg/mL) | > 50 | – | – |
| CC(=O)N1CCc2cc3nc(C)cc(C)c3cc21 | > 50 | 4.7 (≈ 1.13 µg/mL) | > 50 | 12.5 (≈ 3 µg/mL) | > 50 | 25 (≈ 6.01 µg/mL) | 6.25 (≈ 1.5 µg/mL) | 2.3 (≈ 0.553 µg/mL) | > 50 | 2.3 (≈ 0.553 µg/mL) | 3.13 (≈ 0.752 µg/mL) | > 50 | 0.15 (≈ 0.036 µg/mL) | > 50 | 0.39 (≈ 0.0937 µg/mL) | > 50 | > 50 | – | – |
| Clc1ccc(CCNc2cc(-c3ccccc3)nc3ncnn23)cc1 | > 50 | 6.25 (≈ 2.19 µg/mL) | 50 (≈ 17.5 µg/mL) | 25 (≈ 8.75 µg/mL) | > 50 | > 50 | 6.25 (≈ 2.19 µg/mL) | 4.7 (≈ 1.64 µg/mL) | > 50 | 3.13 (≈ 1.09 µg/mL) | 3.13 (≈ 1.09 µg/mL) | > 50 | 0.3 (≈ 0.105 µg/mL) | > 50 | 1.2 (≈ 0.42 µg/mL) | 50 (≈ 17.5 µg/mL) | > 50 | – | – |
| CN1CCN(c2cc(-c3ccc(F)cc3)nc(-c3ccncc3)n2)CC1 | > 50 | 12.5 (≈ 4.37 µg/mL) | 37 (≈ 12.9 µg/mL) | 12.5 (≈ 4.37 µg/mL) | > 50 | 6.25 (≈ 2.18 µg/mL) | 6.25 (≈ 2.18 µg/mL) | 6.25 (≈ 2.18 µg/mL) | > 50 | 6.25 (≈ 2.18 µg/mL) | 12.5 (≈ 4.37 µg/mL) | 25 (≈ 8.74 µg/mL) | 19 (≈ 6.64 µg/mL) | 9.4 (≈ 3.28 µg/mL) | 12.5 (≈ 4.37 µg/mL) | 12.5 (≈ 4.37 µg/mL) | > 50 | – | – |
| CS(=O)(=O)Cc1nc2ccccc2oc1=O | > 50 | 6.25 (≈ 1.5 µg/mL) | 19 (≈ 4.55 µg/mL) | 3.12 (≈ 0.746 µg/mL) | 12.5 (≈ 2.99 µg/mL) | 6.25 (≈ 1.5 µg/mL) | 3.12 (≈ 0.746 µg/mL) | 6.25 (≈ 1.5 µg/mL) | > 50 | 6.25 (≈ 1.5 µg/mL) | 6.25 (≈ 1.5 µg/mL) | 9.4 (≈ 2.25 µg/mL) | 0.78 (≈ 0.187 µg/mL) | 9.4 (≈ 2.25 µg/mL) | 1.56 (≈ 0.373 µg/mL) | 9.4 (≈ 2.25 µg/mL) | 12.5 (≈ 2.99 µg/mL) | – | – |
| COc1cc(Br)cc2cc(C(=O)Nc3cccc(C(F)(F)F)c3)c(=O)oc12 | > 50 | > 50 | 50 (≈ 22.1 µg/mL) | 12.5 (≈ 5.53 µg/mL) | 12.5 (≈ 5.53 µg/mL) | 9.4 (≈ 4.16 µg/mL) | 1.5 (≈ 0.663 µg/mL) | 2.3 (≈ 1.02 µg/mL) | > 50 | 12.5 (≈ 5.53 µg/mL) | 6.25 (≈ 2.76 µg/mL) | > 50 | 1.2 (≈ 0.531 µg/mL) | 9.4 (≈ 4.16 µg/mL) | 4.7 (≈ 2.08 µg/mL) | 1.56 (≈ 0.69 µg/mL) | 12.5 (≈ 5.53 µg/mL) | – | – |
| Cc1ccc2nc(C)c(-c3ccn(Cc4ccccc4)n3)n2c1 | 35.5 | 19 (≈ 5.75 µg/mL) | 50 (≈ 15.1 µg/mL) | 50 (≈ 15.1 µg/mL) | > 50 | 37 (≈ 11.2 µg/mL) | 6.25 (≈ 1.89 µg/mL) | 12.5 (≈ 3.78 µg/mL) | 36.1 | 4.7 (≈ 1.42 µg/mL) | 9.4 (≈ 2.84 µg/mL) | > 50 | 0.78 (≈ 0.236 µg/mL) | ≥ 50 | 0.78 (≈ 0.236 µg/mL) | 50 (≈ 15.1 µg/mL) | > 50 | > 50 | 28.6 |
| CCOc1ccc(-c2nc(CNCCc3ccc(F)cc3)cs2)cc1 | 33.3 | 25 (≈ 8.91 µg/mL) | 25 (≈ 8.91 µg/mL) | 25 (≈ 8.91 µg/mL) | 50 (≈ 17.8 µg/mL) | 12.5 (≈ 4.46 µg/mL) | 25 (≈ 8.91 µg/mL) | 12.5 (≈ 4.46 µg/mL) | 21.2 | 12.5 (≈ 4.46 µg/mL) | 9.4 (≈ 3.35 µg/mL) | 25 (≈ 8.91 µg/mL) | 19 (≈ 6.77 µg/mL) | 19 (≈ 6.77 µg/mL) | 12.5 (≈ 4.46 µg/mL) | 19 (≈ 6.77 µg/mL) | 50 (≈ 17.8 µg/mL) | 35.4 | 24 |
| Brc1cncc(-c2cc(NCCCn3ccnc3)nc(-c3ccccc3)n2)c1 | 16.4 | 12.5 (≈ 5.44 µg/mL) | 37 (≈ 16.1 µg/mL) | 12.5 (≈ 5.44 µg/mL) | > 50 | 9.4 (≈ 4.09 µg/mL) | 12.5 (≈ 5.44 µg/mL) | 6.25 (≈ 2.72 µg/mL) | 43.6 | 6.25 (≈ 2.72 µg/mL) | 9.4 (≈ 4.09 µg/mL) | 25 (≈ 10.9 µg/mL) | 12.5 (≈ 5.44 µg/mL) | 12.5 (≈ 5.44 µg/mL) | 12.5 (≈ 5.44 µg/mL) | 4.7 (≈ 2.05 µg/mL) | > 50 | 28.3 | > 50 |
| Cc1ccccc1CN1CCC(O)(c2ccc(Cl)c(C(F)(F)F)c2)CC1 | > 50 | 0.39 (≈ 0.15 µg/mL) | 0.39 (≈ 0.15 µg/mL) | 3.12 (≈ 1.2 µg/mL) | 12.5 (≈ 4.8 µg/mL) | 0.78 (≈ 0.299 µg/mL) | 3.12 (≈ 1.2 µg/mL) | 0.6 (≈ 0.23 µg/mL) | > 50 | 0.78 (≈ 0.299 µg/mL) | 0.6 (≈ 0.23 µg/mL) | 0.39 (≈ 0.15 µg/mL) | 0.3 (≈ 0.115 µg/mL) | 1.2 (≈ 0.461 µg/mL) | 0.3 (≈ 0.115 µg/mL) | 0.39 (≈ 0.15 µg/mL) | 25 (≈ 9.6 µg/mL) | – | – |
| O=C(N[C@H](Cc1ccccc1)C(=O)Nc1ccccc1N1CCOCC1)c1cccs1 | > 50 | 1.2 (≈ 0.523 µg/mL) | 1.2 (≈ 0.523 µg/mL) | 12.5 (≈ 5.44 µg/mL) | > 50 | 2.3 (≈ 1 µg/mL) | 6.25 (≈ 2.72 µg/mL) | 2.3 (≈ 1 µg/mL) | > 50 | 3.13 (≈ 1.36 µg/mL) | 1.56 (≈ 0.679 µg/mL) | 1.2 (≈ 0.523 µg/mL) | 0.15 (≈ 0.0653 µg/mL) | 4.7 (≈ 2.05 µg/mL) | 0.15 (≈ 0.0653 µg/mL) | 3.13 (≈ 1.36 µg/mL) | > 50 | – | – |
| COc1cccc(-n2nnnc2S(=O)(=O)Cc2ccccc2)c1 | 19.1 | 25 (≈ 8.26 µg/mL) | 25 (≈ 8.26 µg/mL) | 6.25 (≈ 2.06 µg/mL) | 6.25 (≈ 2.06 µg/mL) | 50 (≈ 16.5 µg/mL) | 3.12 (≈ 1.03 µg/mL) | 25 (≈ 8.26 µg/mL) | 28.5 | 50 (≈ 16.5 µg/mL) | 25 (≈ 8.26 µg/mL) | 37 (≈ 12.2 µg/mL) | 1.2 (≈ 0.396 µg/mL) | 37 (≈ 12.2 µg/mL) | 1.56 (≈ 0.515 µg/mL) | 12.5 (≈ 4.13 µg/mL) | 6.25 (≈ 2.06 µg/mL) | 17.9 | 30.6 |
| COc1ccc2nccc(NC(=O)C3CCN(CCc4ccc(Cl)cc4)CC3)c2n1 | > 50 | 0.39 (≈ 0.166 µg/mL) | 0.39 (≈ 0.166 µg/mL) | 0.78 (≈ 0.331 µg/mL) | > 50 | 0.78 (≈ 0.331 µg/mL) | 0.39 (≈ 0.166 µg/mL) | 0.39 (≈ 0.166 µg/mL) | > 50 | 0.6 (≈ 0.255 µg/mL) | 0.39 (≈ 0.166 µg/mL) | 0.39 (≈ 0.166 µg/mL) | 0.3 (≈ 0.127 µg/mL) | 0.78 (≈ 0.331 µg/mL) | 0.39 (≈ 0.166 µg/mL) | 0.39 (≈ 0.166 µg/mL) | > 50 | – | – |
| O=C(c1ccco1)N(CCCn1ccnc1)c1nc2c(Cl)cccc2s1 | > 50 | 25 (≈ 9.67 µg/mL) | ≥ 50 | 25 (≈ 9.67 µg/mL) | > 50 | 37 (≈ 14.3 µg/mL) | 25 (≈ 9.67 µg/mL) | 37 (≈ 14.3 µg/mL) | > 50 | 12.5 (≈ 4.84 µg/mL) | 12.5 (≈ 4.84 µg/mL) | 50 (≈ 19.3 µg/mL) | 25 (≈ 9.67 µg/mL) | 37 (≈ 14.3 µg/mL) | 37 (≈ 14.3 µg/mL) | 50 (≈ 19.3 µg/mL) | > 50 | – | – |
